Test results reported in the NIST ThermoML archive (doi:10.1016/j.jct.2016.08.022).

Experiment: molar heat capacity at constant pressure
Conditions: 101.33 kPa, Crystal 1, Small (less than 1 g) adiabatic calorimetry

CCC(=O)O[C@]1(C(=O)COC(C)=O)CC[C@H]2[C@@H]3C[C@H](C)C4=CC(=O)C=C[C@]4(C)[C@H]3[C@@H](O)C[C@@]21C [Methylprednisolone aceponate]
Conditions	molar heat capacity at constant pressure [J/K/mol]
181.78 K	389.3
182.38 K	390.4
184.68 K	394.6
184.72 K	394.9
186.99 K	398.4
187.66 K	399.4
189.31 K	403.5
190 K	404
190.59 K	405.5
191.61 K	407.4
193.51 K	410.5
193.93 K	410.9
196.2 K	415.5
196.43 K	414.4
198.49 K	418.9
199.33 K	420.1
200 K	421.8
200.78 K	422.8
202.47 K	425.8
203.07 K	427.7
205.36 K	432.9
205.78 K	432.4
207.65 K	435.8
209.13 K	438
209.94 K	439.7
210 K	439.9
212.24 K	444.3
212.49 K	444.8
214.54 K	448.4
215.85 K	450.6
217 K	451.2
219.13 K	456
219.21 K	456.5
220 K	458.2
221.43 K	460.8
222.56 K	463.6
223.73 K	465.6
226.03 K	469.3
228.32 K	473.5
230 K	476.5
230.63 K	477.8
232.91 K	481.1
235.22 K	485.8
237.52 K	490.6
239.83 K	495.3
240 K	494.9
242.15 K	498.7
244.46 K	503.6
246.77 K	507.1
249.09 K	511.5
250 K	513.6
251.4 K	516.4
253.72 K	521
255.92 K	524.6
256.03 K	524.6
258.35 K	529.7
259.52 K	530.8
260 K	532.3
260.9 K	534.6
262.9 K	537.3
262.99 K	536.3
265.31 K	542.1
266.27 K	542.9
267.63 K	546.6
269.63 K	548.4
269.94 K	551.7
270 K	550.2
271.74 K	553.4
272.99 K	555.5
274.21 K	556.6
276.35 K	562.2
276.54 K	562
278.86 K	565.7
279.7 K	568.4
280 K	568.6
281.15 K	570.9
283.05 K	574.7
283.4 K	575.9
285.69 K	580.8
286.39 K	581.4
287.93 K	584.1
289.74 K	587.6
290 K	588.2
290.2 K	587.9
292.47 K	592.6
293.07 K	594.1
294.75 K	598.5
296.41 K	600.8
297.02 K	602.8
298.15 K	604.8
299.28 K	607.2
299.74 K	606.1
300 K	608.6
301.54 K	611.3
303.07 K	615.7
303.8 K	617.2
306.05 K	621.4
306.4 K	622.2
308.26 K	624.1
309.65 K	627.8
310 K	628.6
310.51 K	629.5
312.76 K	633
312.99 K	634.1
315.01 K	636.6
316.33 K	639.9
317.25 K	644.1
319.5 K	647.2
319.67 K	646.8
320 K	647.5
321.75 K	651.6
323.01 K	652.2
324 K	655.2
326.24 K	660
326.36 K	659.5
328.49 K	664.4
329.71 K	665.6
330 K	666.6
330.74 K	670
332.99 K	672.4
333.06 K	673.1
335.24 K	679.6
336.41 K	679.8
337.49 K	684.3
339.74 K	691.4
339.75 K	688.9
340 K	691.3
341.99 K	697.1
343.1 K	701.5
346 K	713.9
346.44 K	717.2
